From patent US8431169B2, “Nutraceutical composition and methods of use” (Dacy Tech Pty Ltd, priority 2007, dated 2013)

Assays:
[1] = tested on: Normal Human Articular Chondrocytes (NHAC-knee); experiment: BrdU cell proliferation assay; type: cell-based
Method: Clonetics® Normal Human Articular Chondrocytes (NHAC-knee) obtained from Lonza Australia Pty Ltd, were grown in chondrocyte growth medium (CGM) supplemented with growth factors. NHACs were used at passage #3-4 for all experiments.
The following assays were carried out using the protocols as per kit instructions:
Each of the above fractions was then individually assayed again for viability/cytotoxicity, cell growth and proliferation, apoptosis/necrosis using the tests as previously mentioned.

[2] = tested on: IL-1-stimulated and unstimulated cartilage explants; experiment: cell viability staining of cartilage explants (C-AM / EthD-1); type: cell-based, pig; conditions: indosim 0.02 mg/mL
Method: Front legs of market weight pigs (5-7 months old, 200-250 lbs) were obtained from a local abattoir. Legs were chilled on crushed ice until dissection. Using aseptic technique, the intercarpal joint was opened and the cartilage surfaces exposed. A 4 mm dermal biopsy punch was used to take explants ( 0.5 mm thickness; 11-15 mg/explant) of healthy cartilage from the weight-bearing region of both articulating surfaces of the intercarpal joint. Cartilage pieces were washed 3 times in Dubelco's Modified Eagle Medium (DMEM) supplemented with NaHCO3. Two cartilage discs were placed into each well of 24-well tissue culture plates containing DMEM supplemented with amino acids, sodium selenite, manganese sulfate, NaHCO3 and ascorbic acid (TCM-tissue culture medium). Plates were incubated at 37° C., 7% CO2 in a humidified atmosphere for up to 144 h. Every 24 h media was completely aspirated into 1 mL microcentrifuge tubes and immediately replaced with control, conditioned and/or stimulated media (described below) before being returned to the incubator. […] Media was analyzed for [PGE2], [GAG], and [NO]. […] Cell viability was determined using a commercially available viability staining kit (Invitrogen; Burlington ON) (Pearson et al., 2007). […] The plate was read from the bottom of each well using 10 horizontal steps, 3 vertical steps, and a 0.1 mm displacement.

[3] = tested on: iNOS; experiment: iNOS expression in IL-1-stimulated cartilage explants; type: cell-based, pig; conditions: IL-1-stimulated explants
Method: Simulated digests were prepared using SEQ (0.85 g), BO [2.5 mL (0.85 g)] and indomethacin (0.074 g—a positive anti-inflammatory control). […]

[4] = tested on: IL-1 stimulated and unstimulated cartilage explants; experiment: nitric oxide (nitrite) in media from cartilage explants; type: cell-based, pig; conditions: IL-1-stimulated explants; indosim
Method: Simulated digests were prepared using SEQ (0.85 g), BO [2.5 mL (0.85 g)] and indomethacin (0.074 g—a positive anti-inflammatory control). Each test substance was individually suspended in 35 mL of simulated gastric fluid (37 mM NaCl, 0.03N HCl, 3.2 mg/mL pepsin), and shaken at 37° C. for 2 h (Rininger et al., 2000). After this, solution acidity was neutralized by adding an equinormal volume of 2.2 N NaOH (1.15 mL). To this was added 36.15 mL of simulated intestinal fluid (Rininger et al., 2000−30 mM K2HPO4, 160 mM NaH2PO4; 20 mg/mL pancreatin; pH adjusted to 7.4) and the resultant mixture shaken in a 37° C. incubator for a further 2 h. A “blank” was prepared using identical methodology but without including any test substance.
The supernatant was decanted and centrifuged a second time at 3,000×g for 15 min at 4° C. […]
Synovial fluid [NO]: Nitrite (NO2^−), a stable oxidation product of NO, was analyzed by the Griess reaction (Fenton et al., 2002). […] Sulfanilamide (0.01 g/mL) and N-(1)-Napthylethylene diamine hydrochloride (1 mg/mL) dissolved in phosphoric acid (0.085 g/L) was added to all wells, and absorbance was read within 5 minutes on a Victor 3 microplate reader at 530 nm. Sample absorbance was compared to a sodium nitrite standard.

[5] = tested on: IL-1 stimulated and unstimulated cartilage explants; experiment: GAG release into media by cartilage explants (1,9-DMB assay); type: cell-based, pig; conditions: indosim 0.02 mg/mL
Method: Front legs of market weight pigs (5-7 months old, 200-250 lbs) were obtained from a local abattoir. Legs were chilled on crushed ice until dissection. Using aseptic technique, the intercarpal joint was opened and the cartilage surfaces exposed. A 4 mm dermal biopsy punch was used to take explants ( 0.5 mm thickness; 11-15 mg/explant) of healthy cartilage from the weight-bearing region of both articulating surfaces of the intercarpal joint. Cartilage pieces were washed 3 times in Dubelco's Modified Eagle Medium (DMEM) supplemented with NaHCO3. Two cartilage discs were placed into each well of 24-well tissue culture plates containing DMEM supplemented with amino acids, sodium selenite, manganese sulfate, NaHCO3 and ascorbic acid (TCM-tissue culture medium). Plates were incubated at 37° C., 7% CO2 in a humidified atmosphere for up to 144 h. Every 24 h media was completely aspirated into 1 mL microcentrifuge tubes and immediately replaced with control, conditioned and/or stimulated media (described below) before being returned to the incubator. […] Media was analyzed for [PGE2], [GAG], and [NO]. […] Media GAG concentration was determined using a 1,9-DMB spectrophotometric assay (Chandrasekhar et al., 1987). […] Plates were incubated in the dark for 10 minutes, and absorbance was read on a Victor 3 microplate reader at 530 nm. Sample absorbance was compared to that of a chondroitin sulfate standard. […]

[6] = tested on: aggrecan; experiment: aggrecan RNA expression in cartilage explants (real time RT-PCR); type: cell-based, pig; conditions: indosim 0.02 mg/mL
Method: Front legs of market weight pigs (5-7 months old, 200-250 lbs) were obtained from a local abattoir. Legs were chilled on crushed ice until dissection. Using aseptic technique, the intercarpal joint was opened and the cartilage surfaces exposed. A 4 mm dermal biopsy punch was used to take explants (˜0.5 mm thickness; 11-15 mg/explant) of healthy cartilage from the weight-bearing region of both articulating surfaces of the intercarpal joint. Cartilage pieces were washed 3 times in Dubelco's Modified Eagle Medium (DMEM) supplemented with NaHCO3. Two cartilage discs were placed into each well of 24-well tissue culture plates containing DMEM supplemented with amino acids, sodium selenite, manganese sulfate, NaHCO3 and ascorbic acid (TCM—tissue culture medium). Plates were incubated at 37° C., 7% CO2 in a humidified atmosphere for up to 144 h. Every 24 h media was completely aspirated into 1 mL microcentrifuge tubes and immediately replaced with control, conditioned and/or stimulated media (described below) before being returned to the incubator. The collected media was stored at −80° C. until analysis. Cartilage was harvested at the end of each experiment with one explant per well stained for cytotoxicity and the remaining cartilage immediately frozen at −80° C. […]
SEQsim was prepared as explained above. […] Media was analyzed for [PGE2], [GAG], and [NO]. […]

SMILES: CCCCCCCCC=CCCCCCCCC(=O)O [Fraction F1.4, 9-Octadecenoic acid]
- NHAC proliferation (BrdU) [1]: most active

SMILES: COc1ccc2c(c1)c(CC(=O)O)c(C)n2C(=O)c1ccc(Cl)cc1 [indosim, indomethacin]
- cell viability ([2]; IL-1-stimulated explants): no significant effect
- cell viability ([2]; unstimulated explants): no significant effect
- IL-1-mediated iNOS expression [3]: augmenting effect
- IL-1-mediated NO production [4]: increase
- media [GAG] compared with stimulated controls ([5]; IL-1-stimulated explants, p=0.1): elevated compared with stimulated controls over the duration of the experiment, but not significantly
- media [GAG] compared with unstimulated controls ([5]; unstimulated explants): significantly higher
- aggrecan increase after IL-1 stimulation ([6]; IL-1-stimulated (10 ng/mL) explants): completely abolished
- increase in aggrecan expression ([6]; unstimulated explants): 58 fold
